Results from US20230356105A1, “TETRAAZADODECANE BASED CHELATING AGENTS FOR SEPARATION OF RARE EARTH ELEMENTS AND METHOD THEREFOR” (Ustav Organicke Chemie a Biochemie AV CR V.V.I., priority 2020, published 2023).
“And” between values parts separate entries of the source, which are not always exact repeats. Equal entries are not always repeated.

How the values were obtained:
[1] = Separation of Nd/Pr/Tb/Dy mixture by precipitation using L5 and α-HIBA (Example 23); assay type: physicochemical
Protocol: These aqueous reaction mixtures, each prepared to a total volume of 1.5 mL with the addition of water as necessary, were mixed by the use of a PTFE-coated stir bar on a magnetic stirrer. The cuvettes were sealed with transparent tape to prevent evaporation overnight. […] The supernatants were carefully pipetted out and transferred to a new set of tubes. […] The absolute concentration of the four metals in each supernatant and precipitate was determined by ICP-OES.

[2] = Separation of Ho/Er mixture using L1 with repeated dissolution of the precipitate with heat (Example 12); assay type: physicochemical; conditions: for Precipitate concentration [mM] Ho: dissolved to 200 μL
Protocol: The experiment was conducted according to Example 11), the difference being that instead of dissolving the precipitate in acid and neutralizing by addition of base, 200 μL of water were added to the precipitate and the suspension was stirred at 80° C. for 24 hours. Full dissolution of the precipitate was not achieved during this process, but a saturated solution was formed. After cooling to room temperature, the mixtures were processed as though the precipitation had occurred normally. The resulting absolute concentrations of both metals in the supernatants and precipitates, as well as calculated values of the separation factor Er/Ho according to the formula from Example 11) are summarized in Table 6. […] Repetition of the cycles in this experiment also led to a higher degree of enrichment for one of the rare-earth elements. The average separation factor value was 2.97.

[3] = L5 + α-HIBA, MOPS pH=7, 18 hours, individual samples A, B, C
[4] = L5 + α-HIBA, MOPS pH=7, 18 hours, precipitate dissolved to 500 μL, individual samples A, B, C

In the case of `O=C(O)CN1CCN(CC(=O)O)CCN(Cc2cccc3ccccc23)CCN(CC(=O)O)CC1` [L5, 2,2′,2″-(10-(naphthalene-1-ylmethyl)-1,4,7,10-tetraazacyklododekane-1,4,7-triyl)triacetic acid], the “supernatant concentration Dy” value [1, 3] was 1.73 and 1.38 and 1.65, the “supernatant concentration Nd” value [1, 3] was 1.31 and 0.78 and 0.98 and the “supernatant concentration Pr” value [1, 3] was 0.32 and 0.20 and 0.24. The “supernatant concentration Tb” value [1, 3] was 1.22 and 1.00 and 1.17, the “precipitate concentration Dy” value [1, 4] was 1.04 and 0.95 and 1.05 and the “precipitate concentration Nd” value [1, 4] was 8.60 and 7.83 and 8.96. The “precipitate concentration Pr” value [1, 4] was 2.30 and 2.08 and 2.40, the precipitate concentration Tb [1, 4] was 1.25 mM (2×) and 1.11 mM and the “precipitate concentration Dy, average” value ([1]; average of samples A-C) was 1.01. For the same molecule, the “precipitate concentration Nd, average” value ([1]; average of samples A-C) was 8.46, the “precipitate concentration Pr, average” value ([1]; average of samples A-C) was 2.26 and the “precipitate concentration Tb, average” value ([1]; average of samples A-C) was 1.20. The “supernatant concentration Dy, average” value ([1]; average of samples A-C) was 1.59, the “supernatant concentration Nd, average” value ([1]; average of samples A-C) was 1.03 and the “supernatant concentration Pr, average” value ([1]; average of samples A-C) was 0.25. The “supernatant concentration Tb, average” value ([1]; average of samples A-C) was 1.13, the “% comp of precipitate, Dy” value ([1]; percent composition of phase) was 7.8% and the “% comp of precipitate, Nd” value ([1]; percent composition of phase) was 65.4%. The “% comp of precipitate, Pr” value ([1]; percent composition of phase) was 17.5%, the “% comp of precipitate, Tb” value ([1]; percent composition of phase) was 9.3% and the “% comp of supernatant, Dy” value ([1]; percent composition of phase) was 39.7%. The “% comp of supernatant, Nd” value ([1]; percent composition of phase) was 25.7%, the “% comp of supernatant, Pr” value ([1]; percent composition of phase) was 6.3% and the “% comp of supernatant, Tb” value ([1]; percent composition of phase) was 28.3%.

In the case of `O=C(O)CN1CCN(CC(=O)O)CCN(Cc2ccccc2)CCN(CC(=O)O)CC1` [L1, 2,2′,2″-(10-benzyl-1,4,7,10-tetraazacyclododecane-1,4,7-triyl)triacetic Acid], the “average separation factor value Er/Ho” value ([2]; all samples) was 2.97, the “Separation factor Er/Ho” value ([2]; group A, 1st cycle) was 2.89 and 2.84 and 3.04 and the “Supernatant concentration [mM] Ho” value ([2]; group A, 1st cycle) was 0.36 mM and 0.33 mM. For the same molecule, the “Precipitate concentration [mM] Ho” value ([2]; group A, 1st cycle) was 4.53 mM and 4.46 mM and 4.68 mM, the “Precipitate concentration [mM] Ho” value ([2]; group A, 1st cycle, mean) was 4.56 mM and the “Supernatant concentration [mM] Ho” value ([2]; group A, 1st cycle, mean) was 0.35 mM. For the same molecule, the “Separation factor Er/Ho” value ([2]; group B, 2nd cycle) was 2.69 and 2.94 and 3.69, the “Supernatant concentration [mM] Ho” value ([2]; group B, 2nd cycle (water, 80° C., 24 hours)) was 0.27 mM and 0.32 mM and 0.25 mM and the “Supernatant concentration [mM] Ho” value ([2]; group B, 2nd cycle (water, 80° C., 24 hours), mean) was 0.28 mM. The “Precipitate concentration [mM] Ho” value ([2]; group B, 2nd cycle) was 3.89 mM and 3.98 mM and 3.64 mM, the “Precipitate concentration [mM] Ho” value ([2]; group B, 2nd cycle, mean) was 3.84 mM and the “Separation factor Er/Ho” value ([2]; group C, 3rd cycle) was 2.38 and 2.79 and 3.47. For the same molecule, the “Supernatant concentration [mM] Ho” value ([2]; group C, 3rd cycle (water, 80° C., 24 hours)) was 0.39 mM and 0.37 mM and 0.27 mM, the “Supernatant concentration [mM] Ho” value ([2]; group C, 3rd cycle (water, 80° C., 24 hours), mean) was 0.34 mM and the “Precipitate concentration [mM] Ho” value ([2]; group C, 3rd cycle) was 3.16 mM and 3.13 mM and 3.75 mM. The “Precipitate concentration [mM] Ho” value ([2]; group C, 3rd cycle, mean) was 3.35 mM.
